Tested on: OVCAR-5 ovarian cancer model
Assay: nExos in serum and ascites of OVCAR-5 tumor-bearing mice by imaging flow cytometry
Format: in vivo, mouse
Details: topotecan 7.5 mg/kg vs vehicle control
Excerpt: Exosome staining for imaging flow cytometry and analysis. For quantitative analysis and imaging flow cytometry of exosomes, the method described by Erdbrugger et al. (2014) using an Amnis ImageStreamX MarkII analyzer was adapted. Briefly, 3×10^9 to 5×10^9 particles were isolated from either tissue culture cells, mouse serum and ascites, or serum obtained from patients with ovarian cancer and resuspended in PBS. Exosomes were placed in a sterile 1.5-ml Eppendorf tube and stained with CellMask Green Plasma Membrane (CMG) stain (1:250 dilution; C37608, Thermo Fisher Scientific) for 30 min at 37° C., protected from light. Exosomes were then washed to remove excess CMG by adding 2 ml of PBS and pelleted by ultracentrifugation at 40,000 rpm for 2 hours at 4° C. […]
To stain for dsDNA, CMG-stained exosomes were co-stained with DRAQ5 (62254, Thermo Fisher Scientific) at either 1:50 dilution for biofluid exosome samples or 1:250 dilution for cell culture samples and were lightly agitated at RT for 1 hour, protected from light. Samples were then placed on ice, and images of single exosomes were detected using the 60× objective of an Amnis ImageStreamX MarkII analyzer. […] Particle size was estimated using Invitrogen Flow Cytometry Submicron Particle Size Reference Beads (F13839, Thermo Fisher Scientific), allowing exclusion of particles <150 nm based on the signal detected from side scatter. […]

For `CC[C@@]1(O)C(=O)OCc2c1cc1n(c2=O)Cc2cc3c(CN(C)C)c(O)ccc3nc2-1` [topotecan], the nExos in ascites (ascites, P=0.028) was “significant increase” and the nExos in serum (serum) was “no difference”.

Source: patent US20220163532A1, “NUCLEAR-DERIVED EXOSOMES AND METHODS OF USE THEREOF” (Board of Regents, The University of Texas System, priority 2019, published 2022)
